Results: patent US20220395464A1, “ORALLY ADMINISTERED SOLID DOSAGE FORM DRUG” (ASCENTAWITS PHARMACEUTICALS, LTD., priority 2019, published 2022)
Values joined by “and” are separate entries in the source; they are usually repeats but may differ in a detail not shown here. Identical values can stand only once. Like-named read-outs stand apart in the source and are kept apart here.

Test: Pharmacokinetics after single intravenous drip infusion, plasma LC-MS/MS
Type: in vivo, Philippine macaques
Conditions: for Plasma-drug concentration: AST-3424 intravenous drip infusion 0.58 mg/kg
Experimental: AST-3424 and AST-3424-D6 (i.e. the compound of formula I) were administered to Philippine macaques by intravenous drip infusion, and blood samples were collected at different appointed times. LC-MS/MS was used to determine concentrations of the test substances in plasma of the Philippine macaques after administration, and relevant pharmacokinetic parameters were calculated.
Preparation method: 0.447 ml of AST-3424 (0.2 mg/ml) and 0.481 ml of AST-3424-D6 (0.2 mg/ml) were added into 104.272 ml of the dissolvent, respectively, and mixed for 5 minutes to obtain colorless and clarified solutions with pH 7.0.
The four male Philippine macaques were purchased from Guangxi Xiongsen Primate Development Experiment Co., Ltd. All Philippine macaques were healthy with qualified medical examination and no abnormality. Three of animals were used for the experiment, and one of them was used to prepare blank plasma.
About 0.8 ml of blood samples were collected through femoral vein and anticoagulated with heparin sodium. Appointed times of blood collection were before administration, 0.17, 0.25, 0.5, 0.75, 1, 2, and 4 hours after administration.
The blood samples were placed on ice after collection. Next, plasma samples were separated by centrifugation, and centrifugation conditions were 3500 rpm for 10 minutes at 4° C. Then, the collected plasma samples were stored at −80° C. until analysis. The plasma samples were analyzed by LC-MS/MS by an analysis department of an experimental institution. Besides, Lower limit of quantifications (LLOQ) of AST-3424 and AST-3424-D6 detection were 1 ng/ml. The accuracy of analysis results of an accompanying standard curve and a quality control samples all met the relevant requirements of biological analysis (the accuracy of the quality control samples exceeding 66.7% was between 85˜115%) in a process of the sample detection.
According to average blood concentration data of each group at each appointed time, the pharmacokinetic parameters of the compounds were respectively computed by a pharmacokinetic computing software, a non-compartmental model. In addition, the pharmacokinetic parameters were AUC0-t, AUC0-∞, MRT0-∞, Cmax, Tmax, t1/2, etc. In the case of the concentrations of the samples whose concentration being lower than a lower limit of quantification, the following schemes were used to compute the pharmacokinetic parameters. The samples sampled before reaching Cmax shall be computed as zero value, while the samples sampled after reaching Cmax shall be computed as non-quantifiable (marked as “BLQ”).
After a single intravenous infusion of the compounds AST-3424 and AST-3424-D6 was administered to the Philippine macaques, the whole blood samples of the corresponding animals were collected at the appointed times. Next, the whole blood samples were processed and biologically analyzed to obtain concentrations of the compounds in the plasma at the different appointed times. Results of the assay were listed in Table 14 below, and corresponding means of the plasma-drug concentration-time curves are shown in FIG. 3.
According to the plasma-drug concentration data of each drug group, the pharmacokinetic parameters of each compound group were computed using the non-compartmental model of the pharmacokinetic computing software. The pharmacokinetic

[1] = AST-3424 0.58 mg/kg single intravenous infusion, plasma, individual animals 101, 102, 103, 0.58 mg/kg

## C[C@H](OP(=O)(N1CC1)N1CC1)c1ccc([N+](=O)[O-])c(Oc2cccc(C(=O)N(C)C)c2)c1 [AST-3424, (S)-1-(3-(3-N,N-Dimethylaminocarbonyl)phenoxy-4-nitrophenyl)-1-ethyl-N,N′-bis(ethylene) phosphoramidate]
[1]
  AUC(0−t): 430.42 ng·h/mL and 474.63 ng·h/mL
  AUC(0−∞): 430.76 ng·h/mL and 475.04 ng·h/mL
  Cl: 22.4412 mL/min/kg and 20.3492 mL/min/kg
  Cmax: 677.40 ng/mL and 800.80 ng/mL
  MRT(0−t): 11.4 min
  MRT(0−∞): 11.4 min and 10.8 min
  T1/2: 10.8 min and 11.4 min
  Tmax: 15 min and 30 min and 10.2 min
  Vss: 0.26123 L/kg and 0.21373 L/kg
  Vz: 0.35358 L/kg and 0.33343 L/kg
0.17 hr, individual animals 101, 102, 103
  Plasma-drug concentration: 800.80 ng/mL and 685.96 ng/mL
0.25 hr, individual animals 101, 102, 103
  Plasma-drug concentration: 729.91 ng/mL and 695.61 ng/mL
0.5 hr, individual animals 101, 102, 103
  Plasma-drug concentration: 729.08 ng/mL and 679.80 ng/mL
0.75 hr, individual animals 101, 102, 103
  Plasma-drug concentration: 157.68 ng/mL and 118.92 ng/mL
1 hr, individual animals 101, 102, 103
  Plasma-drug concentration: 50.63 ng/mL and 31.86 ng/mL
2 hr, individual animals 101, 102, 103, LLOQ 1 ng/ml
  Plasma-drug concentration: 1.51 ng/ ml and BLQ
4 hr, individual animals 101, 102, 103, LLOQ 1 ng/ml
  Plasma-drug concentration: BLQ
male, Philippine macaque, cynomolgus monkey, plasma, iv, 0.58 mg/kg, AST-3424 0.58 mg/kg single intravenous infusion, plasma, individual animals 101, 102, 103, read-out: AUC(0−t)
  AUC(0-t): 404 ng·h/mL
male, Philippine macaque, cynomolgus monkey, plasma, iv, 0.58 mg/kg, AST-3424 0.58 mg/kg single intravenous infusion, plasma, individual animals 101, 102, 103, read-out: AUC(0−∞)
  AUC(0-inf): 409 ng·h/mL
male, Philippine macaque, cynomolgus monkey, plasma, iv, 0.58 mg/kg, AST-3424 0.58 mg/kg single intravenous infusion, plasma, individual animals 101, 102, 103, read-out: Cl (converted)
  clearance: 23.6 mL/min/kg
male, Philippine macaque, cynomolgus monkey, plasma, iv, 0.58 mg/kg, AST-3424 0.58 mg/kg single intravenous infusion, plasma, individual animals 101, 102, 103, read-out: Cmax
  Cmax: 696 ng/mL
male, Philippine macaque, cynomolgus monkey, plasma, iv, 0.58 mg/kg, AST-3424 0.58 mg/kg single intravenous infusion, plasma, individual animals 101, 102, 103, read-out: T1/2 (converted)
  half-life: 6.6 min
male, Philippine macaque, cynomolgus monkey, plasma, iv, 0.58 mg/kg, AST-3424 0.58 mg/kg single intravenous infusion, plasma, individual animals 101, 102, 103, read-out: Vss
  Vd: 0.202 L/kg
male, Philippine macaque, cynomolgus monkey, plasma, iv, 0.58 mg/kg, AST-3424 0.58 mg/kg single intravenous infusion, plasma, individual animals 101, 102, 103, read-out: Vz
  Vd: 0.231 L/kg
male, Philippine macaque, cynomolgus monkey, plasma, iv, 0.58 mg/kg, AST-3424 0.58 mg/kg single intravenous infusion, plasma, read-out: AUC(0−t), Mean
  AUC(0-t): 436 ± 35.6 ng·h/mL
male, Philippine macaque, cynomolgus monkey, plasma, iv, 0.58 mg/kg, AST-3424 0.58 mg/kg single intravenous infusion, plasma, read-out: AUC(0−∞), Mean
  AUC(0-inf): 438 ± 33.5 ng·h/mL
male, Philippine macaque, cynomolgus monkey, plasma, iv, 0.58 mg/kg, AST-3424 0.58 mg/kg single intravenous infusion, plasma, read-out: Cl, Mean (converted)
  clearance: 22.1 mL/min/kg
male, Philippine macaque, cynomolgus monkey, plasma, iv, 0.58 mg/kg, AST-3424 0.58 mg/kg single intravenous infusion, plasma, read-out: Cmax, Mean
  Cmax: 725 ± 66.6 ng/mL
male, Philippine macaque, cynomolgus monkey, plasma, iv, 0.58 mg/kg, AST-3424 0.58 mg/kg single intravenous infusion, plasma, read-out: MRT(0−t), Mean
  MRT last: 10.2 ± 1.8 min
male, Philippine macaque, cynomolgus monkey, plasma, iv, 0.58 mg/kg, AST-3424 0.58 mg/kg single intravenous infusion, plasma, read-out: MRT(0−∞), Mean
  MRT inf: 10.2 ± 1.8 min
male, Philippine macaque, cynomolgus monkey, plasma, iv, 0.58 mg/kg, AST-3424 0.58 mg/kg single intravenous infusion, plasma, read-out: T1/2, Mean (converted)
  half-life: 9.6 min
